From ChEMBL document CHEMBL6109122 (J Med Chem, 2025) come the findings set out here.

The structures appear in SMILES notation. pIC50: −log10 of the molar value. Calls of active or inactive are those of the source.

Data set [1] addresses T1, Protein cereblon/Non-receptor tyrosine-protein kinase TYK2 (Homo sapiens, UniProt P29597+Q96SW2). Nature of the data set: PROTAC activity at CRBN/TYK2 in human Jurkat cells assessed as induction of degradation of TYK2 at 100 nM measured after 10 hrs by Western blot analysis relative to control. It counts as cell-based.
Target sequence in this assay (P29597 whole entry, looked up): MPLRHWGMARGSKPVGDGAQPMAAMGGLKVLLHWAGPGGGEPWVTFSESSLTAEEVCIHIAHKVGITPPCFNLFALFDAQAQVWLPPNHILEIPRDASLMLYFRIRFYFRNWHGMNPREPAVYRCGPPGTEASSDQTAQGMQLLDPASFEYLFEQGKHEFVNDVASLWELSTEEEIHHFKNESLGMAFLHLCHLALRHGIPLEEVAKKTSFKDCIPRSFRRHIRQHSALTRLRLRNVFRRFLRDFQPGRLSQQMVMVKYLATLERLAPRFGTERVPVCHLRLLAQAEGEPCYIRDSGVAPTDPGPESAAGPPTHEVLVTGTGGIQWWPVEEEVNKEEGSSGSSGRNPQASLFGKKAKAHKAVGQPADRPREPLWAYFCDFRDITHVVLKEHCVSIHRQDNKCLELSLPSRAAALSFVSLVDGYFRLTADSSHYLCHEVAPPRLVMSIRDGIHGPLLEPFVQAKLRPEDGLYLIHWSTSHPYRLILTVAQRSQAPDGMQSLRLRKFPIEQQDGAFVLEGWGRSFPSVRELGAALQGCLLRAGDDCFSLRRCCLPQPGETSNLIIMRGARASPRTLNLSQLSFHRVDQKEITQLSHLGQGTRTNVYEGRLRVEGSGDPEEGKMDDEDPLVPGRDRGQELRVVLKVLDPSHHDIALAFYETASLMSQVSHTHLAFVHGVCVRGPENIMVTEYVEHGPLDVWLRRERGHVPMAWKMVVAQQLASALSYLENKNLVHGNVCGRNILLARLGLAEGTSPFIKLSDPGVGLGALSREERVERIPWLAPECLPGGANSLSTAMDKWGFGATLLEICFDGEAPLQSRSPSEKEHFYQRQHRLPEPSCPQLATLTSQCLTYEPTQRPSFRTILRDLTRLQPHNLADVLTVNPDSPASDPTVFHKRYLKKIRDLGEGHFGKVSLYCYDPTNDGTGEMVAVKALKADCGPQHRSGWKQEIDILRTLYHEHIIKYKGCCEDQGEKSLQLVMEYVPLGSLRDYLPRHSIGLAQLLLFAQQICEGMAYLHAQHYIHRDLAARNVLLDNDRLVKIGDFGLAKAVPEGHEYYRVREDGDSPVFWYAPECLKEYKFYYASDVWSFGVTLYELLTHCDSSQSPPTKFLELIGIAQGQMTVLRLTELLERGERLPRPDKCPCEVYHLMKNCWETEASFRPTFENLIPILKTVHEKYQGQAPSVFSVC
Target sequence in this assay (Q96SW2 whole entry, looked up): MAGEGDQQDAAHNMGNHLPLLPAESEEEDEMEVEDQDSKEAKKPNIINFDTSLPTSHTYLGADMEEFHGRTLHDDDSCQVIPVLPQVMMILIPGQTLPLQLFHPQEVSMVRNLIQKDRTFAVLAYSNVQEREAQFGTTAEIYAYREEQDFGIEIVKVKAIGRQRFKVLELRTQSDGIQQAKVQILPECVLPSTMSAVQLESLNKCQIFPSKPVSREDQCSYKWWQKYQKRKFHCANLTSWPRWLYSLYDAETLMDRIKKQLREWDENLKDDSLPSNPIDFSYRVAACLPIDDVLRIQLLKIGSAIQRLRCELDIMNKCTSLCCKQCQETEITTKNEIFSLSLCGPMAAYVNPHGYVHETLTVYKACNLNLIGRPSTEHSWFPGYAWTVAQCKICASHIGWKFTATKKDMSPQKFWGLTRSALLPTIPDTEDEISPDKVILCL
The target of data set [2] is T1, Protein cereblon/Non-receptor tyrosine-protein kinase TYK2. Put plainly: PROTAC activity at CRBN/TYK2 in human Jurkat cells assessed as induction of degradation of TYK2 at 10 nM measured after 10 hrs by Western blot analysis relative to control. Format: cell-based.
Target sequence in this assay (P29597 whole entry, looked up): as the sequence (P29597 whole entry, looked up) above
Target sequence in this assay (Q96SW2 whole entry, looked up): as the sequence (Q96SW2 whole entry, looked up) above
Data set [3] has the same target. Put plainly: PROTAC activity at CRBN/TYK2 in human Jurkat cells assessed as induction of degradation of TYK2 at 1 nM measured after 10 hrs by Western blot analysis relative to control. Format: cell-based. Background: A western blot detects proteins with antibodies after separation by electrophoresis.
Target sequence in this assay (P29597 whole entry, looked up): as the sequence (P29597 whole entry, looked up) above
Target sequence in this assay (Q96SW2 whole entry, looked up): as the sequence (Q96SW2 whole entry, looked up) above
Data set [4] is described as follows: Metabolic stability in mouse liver microsomes assessed as half life measured up to 120 mins by LC-MS/MS analysis. Format: ADME, Microsome. Background: Liver microsomes are a subcellular fraction often used to study metabolism.
Data set [5] can be described thus: Metabolic stability in mouse liver microsomes assessed as intrinsic clearance measured up to 120 mins by LC-MS/MS analysis. Format: ADME, Microsome. The settings on record: read-out: CLH.
Data set [6] is described as follows: Half life in male ICR mouse at 1 mg/kg, iv measured up to 24 hrs by LC-MS/MS analysis. It counts as ADME, organism-based. To be noted: in vivo.
A short description of data set [7]: Cmax in male ICR mouse at 1 mg/kg, iv measured up to 24 hrs by LC-MS/MS analysis. It counts as ADME, organism-based. The settings on record: in vivo.
The nature of data set [8]: AUC (0 to infinity) in male ICR mouse at 10 mg/kg, po measured up to 24 hrs by LC-MS/MS analysis. To be noted: in vivo. Format: ADME, organism-based.
Data set [9] in a line: Oral bioavailability in male ICR mouse at 10 mg/kg measured up to 24 hrs by LC-MS/MS analysis. It counts as ADME, organism-based. To be noted: in vivo.
The nature of data set [10]: AUC (0 to t) in male ICR mouse at 10 mg/kg, po measured up to 24 hrs by LC-MS/MS analysis. It counts as ADME, organism-based. The settings on record: in vivo.
Data set [11] in a line: AUC (0 to t) in male ICR mouse at 1 mg/kg, iv measured up to 24 hrs by LC-MS/MS analysis. Format: ADME, organism-based. The settings on record: in vivo.
Data set [12] in a line: Apparent permeability of the compound in human Caco-2 cells at 10 uM measured up to 120 min by LC-MS/MS analysis. It counts as ADME, cell-based.
Data set [13] is described as follows: AUC (0 to infinity) in male ICR mouse at 1 mg/kg, iv measured up to 24 hrs by LC-MS/MS analysis. It counts as ADME, organism-based. The settings on record: in vivo.
A short description of data set [14]: Cmax in male ICR mouse at 10 mg/kg, po measured up to 24 hrs by LC-MS/MS analysis. Format: ADME, organism-based. To be noted: in vivo.
A short description of data set [15]: Tmax in male ICR mouse at 10 mg/kg, po measured up to 24 hrs by LC-MS/MS analysis. To be noted: in vivo. It counts as ADME, organism-based.
Data set [16] in a line: Tmax in male ICR mouse at 1 mg/kg, iv measured up to 24 hrs by LC-MS/MS analysis. Format: ADME, organism-based. To be noted: in vivo.
Data set [17] is described as follows: Half life in male ICR mouse at 10 mg/kg, po measured up to 24 hrs by LC-MS/MS analysis. Format: ADME, organism-based. The settings on record: in vivo.
The target in data set [18] is T1, Protein cereblon/Non-receptor tyrosine-protein kinase TYK2. Put plainly: PROTAC activity at CRBN/TYK2 in human HaCaT cells assessed as induction of degradation of TYK2 measured after 10 hrs by Western blot analysis. Format: cell-based. The settings on record: dose 1-100 nM, tested as the 2H-labelled form.
Target sequence in this assay (P29597 whole entry, looked up): as the sequence (P29597 whole entry, looked up) above
Target sequence in this assay (Q96SW2 whole entry, looked up): as the sequence (Q96SW2 whole entry, looked up) above
The nature of data set [19]: Inhibition of TYK2 dependent STAT3 phosphorylation in IL-6 stimulated human PBMC cells preincubated for 60 mins followed by IL-6 stimulation and measured after 60 mins by FACS assay. It counts as cell-based.
Data set [20] can be described thus: Inhibition of TYK2 dependent STAT3 phosphorylation in IL-12 stimulated human PBMC cells preincubated for 60 mins followed by IL-12 stimulation and measured after 60 mins by FACS assay. It counts as cell-based. In general terms: In flow cytometry, cells or beads pass a laser one at a time.
Data set [21] addresses T1, Protein cereblon/Non-receptor tyrosine-protein kinase TYK2. Put plainly: PROTAC activity at CRBN/TYK2 in human Jurkat cells assessed as induction of degradation of TYK2 at 100 ug/ml measured after 10 hrs by Western blot analysis. It counts as cell-based. The settings on record: dose 100.0 µg/ml.
Target sequence in this assay (P29597 whole entry, looked up): as the sequence (P29597 whole entry, looked up) above
Target sequence in this assay (Q96SW2 whole entry, looked up): as the sequence (Q96SW2 whole entry, looked up) above
The target is the same in data set [22]. Nature of the data set: PROTAC activity at CRBN/TYK2 in human Jurkat cells assessed as induction of degradation of TYK2 measured after 10 hrs by Western blot analysis. It counts as cell-based.
Target sequence in this assay (P29597 whole entry): as the sequence (P29597 whole entry, looked up) above
Target sequence in this assay (Q96SW2 whole entry): as the sequence (Q96SW2 whole entry, looked up) above

The half-life is the time needed for the level to fall by half in the phase considered. Usually Cmax stands for the maximum level reached in the sampled fluid or tissue. The AUC(0-inf) is total exposure, with the tail of the curve extrapolated. Read a low AUC(0-inf) as low exposure. In general, bioavailability refers to dose-corrected exposure relative to a reference, in per cent. Read a high bioavailability as much systemic uptake. For orientation: AUC(0-t) means the area under the concentration-time curve up to a stated or last time point. Read a high AUC(0-t) as more exposure. For orientation: Papp means the rate of passage across a membrane or cell layer, normalised by area and donor concentration. The term Tmax denotes the time from dosing to the highest level. A word on the pIC50: it is the IC50 on a negative log10 scale, so that one unit is a factor of ten. Read a high pIC50 as a low IC50. As usually defined, the DC50 is the concentration giving 50% degradation.

`CNC(=O)c1cnc(Nc2ccc(C(=O)NCCCCNc3ccc4c(c3)C(=O)N(C3CCC(=O)NC3=O)C4=O)cn2)cc1Nc1cccc(-c2ncc(F)cn2)c1OC` (centres undefined): the Activity in data set [1] stood at 48%; in data set [2], 42%.

With `CNC(=O)c1cnc(Nc2ccc(C(=O)N3CC4(C3)CN(c3ccc5c(c3)C(=O)N(C3CCC(=O)NC3=O)C5=O)C4)cn2)cc1Nc1cccc(-c2ncc(F)cn2)c1OC` (centres undefined), the Activity came to 68% in data set [1], 46% in [3] and 83% in [2]. In addition, the half-life in [4] came to 104 min. Moreover, in [5], the CLint scaled was 3.18 L/h/kg.

With `CNC(=O)c1cnc(Nc2ccc(C(=O)N3CC4(CC(Nc5ccc6c(c5)C(=O)N(C5CCC(=O)NC5=O)C6=O)C4)C3)cn2)cc1Nc1cccc(-c2ncc(F)cn2)c1OC` (centres undefined), the figures for the Activity in [1], in [3] and in [2] were 48%, 17% and 62%, respectively.

Take `CNC(=O)c1cnc(Nc2ccc(C(=O)N3CCC4(CC3)CCN(c3ccc5c(c3)C(=O)N(C3CCC(=O)NC3=O)C5=O)CC4)cn2)cc1Nc1cccc(-c2ncc(F)cn2)c1OC` (centres undefined): the Activity was determined as 13% in data set [1] and 65% in [2]. Besides, in data set [3], the outcome was inactive.

As to `CNC(=O)c1cnc(Nc2ccc(C(=O)NCCOCCOCCNc3cccc4c3C(=O)N(C3CCC(=O)NC3=O)C4=O)cn2)cc1Nc1cccc(-c2ncc(F)cn2)c1OC` (centres undefined), the Activity in data set [1] was 56%; in [2] it was 5%.

As for `CNC(=O)c1cnc(Nc2ccc(C(=O)N3CCN(C4CCN(c5ccc6c(c5)C(=O)N(C5CCC(=O)NC5=O)C6=O)CC4)CC3)cn2)cc1Nc1cccc(-c2ncc(F)cn2)c1OC` (centres undefined), the Activity in data set [1] was found to be 7%; in data set [2], 17%. In addition, in data set [3], the outcome was inactive.

On to `CNC(=O)c1cnc(Nc2ccc(C(=O)N(C)C3CCN(c4ccc5c(c4)C(=O)N(C4CCC(=O)NC4=O)C5=O)CC3)cn2)cc1Nc1cccc(-c2ncc(F)cn2)c1OC` (centres undefined), for which the half-life was 39.6 min in [6], 41 min in [4] and 72 min in data set [17]. The Cmax is 1.49 µg/mL in data set [7] and 0.124 µg/mL in data set [14]. Moreover, the AUC(0-inf) in data set [8] amounted to 0.163 µg·h/mL; in data set [13], 0.717 µg·h/mL. The compound further had a bioavailability in data set [9] of 2.2%. Also, the area under the curve AUC(0-t) at 24 h is 0.159 µg·h/mL in [10] and 0.712 µg·h/mL in data set [11]. Moreover, the Papp at 2 h, 10 µM in data set [12] was determined as 2.6 nm/s. For the same compound, the Tmax stood at 18 min in data set [15] and 4.8 min in data set [16].

Consider `CNC(=O)c1cnc(Nc2ccc(C(=O)NCCCCNc3cccc4c3C(=O)N(C3CCC(=O)NC3=O)C4=O)cn2)cc1Nc1cccc(-c2ncc(F)cn2)c1OC` (centres undefined), for which the values for the Activity in data set [1] and in data set [2] were 82% and 26%, respectively. Besides, in [4], the half-life is 24 min. Also, in data set [5], the CLint scaled stood at 13.7 L/h/kg.

As to `CNC(=O)c1cnc(Nc2ccc(C(=O)NCCCCCCCCNc3cccc4c3C(=O)N(C3CCC(=O)NC3=O)C4=O)cn2)cc1Nc1cccc(-c2ncc(F)cn2)c1OC` (centres undefined), the values for the Activity in data set [1] and in data set [2] were 74% and 72%, respectively.

Consider `CNC(=O)c1cnc(Nc2ccc(C(=O)NCCCCCNc3ccc4c(c3)C(=O)N(C3CCC(=O)NC3=O)C4=O)cn2)cc1Nc1cccc(-c2ncc(F)cn2)c1OC` (centres undefined), for which the Activity in data set [1] stood at 65%; in data set [2], 88%. In addition, the half-life in data set [4] was found to be 15 min. For the same compound, the CLint scaled in data set [5] came to 21.9 L/h/kg.

As to `CNC(=O)c1nnc(NC(=O)C2CC2)cc1Nc1cccc(-c2ncn(C)n2)c1OC`, the outcome in data set [1] (tested as the 2H-labelled form), in data set [18] and in [2] (tested as the 2H-labelled form) was inactive.

`CNC(=O)c1cnc(Nc2ccc(C(=O)NCCCNc3cccc4c3C(=O)N(C3CCC(=O)NC3=O)C4=O)cn2)cc1Nc1cccc(-c2ncc(F)cn2)c1OC` (centres undefined): the Activity in [1] turned out to be 21%; in data set [2], 18%.

As to `CNC(=O)c1cnc(Nc2ccc(C(=O)NCCCCCCNc3ccc4c(c3)C(=O)N(C3CCC(=O)NC3=O)C4=O)cn2)cc1Nc1cccc(-c2ncc(F)cn2)c1OC` (centres undefined), the Activity in data set [1] was 62%; in data set [2], 46%.

As for `CNC(=O)c1cnc(Nc2ccc(C(=O)NCCOCCNc3cccc4c3C(=O)N(C3CCC(=O)NC3=O)C4=O)cn2)cc1Nc1cccc(-c2ncc(F)cn2)c1OC` (centres undefined), the Activity in data set [1] came out at 66%; in data set [2] it was 32%.

As to `[2H]C([2H])([2H])NC(=O)c1nnc(NC(=O)C2CC2)cc1Nc1cccc(-c2ncn(C)n2)c1OC` [DEUCRAVACITINIB], the negative-log IC50 (pIC50) was 6.39 in [19] and 8.13 in data set [20].

Take `CNC(=O)c1cnc(NC2CCN(CC3CCN(c4ccc5c(c4)C(=O)N(C4CCC(=O)NC4=O)C5=O)CC3)CC2)cc1Nc1cccc(-c2ncc(F)cn2)c1OC` (centres undefined): in data set [12], the Papp at 2 h, 10 µM is < 1 nm/s. Moreover, the half-life in data set [4] is 62 min.

Consider `CNC(=O)c1cnc(Nc2ccc(C(=O)NCCCCCCNc3cccc4c3C(=O)N(C3CCC(=O)NC3=O)C4=O)cn2)cc1Nc1cccc(-c2ncc(F)cn2)c1OC` (centres undefined), for which the Activity in [1] is 69%; in data set [2], 48%.

`CNC(=O)c1cnc(Nc2ccc(C(=O)N3CC(N4CCN(c5ccc6c(c5)C(=O)N(C5CCC(=O)NC5=O)C6=O)CC4)C3)cn2)cc1Nc1cccc(-c2ncc(F)cn2)c1OC` (centres undefined): the Activity in [1] was found to be 67%; in [3] it was 44%; in [2], 77%.

With `CNC(=O)c1cnc(Nc2ccc(C(=O)N3CC4(CCN(c5ccc6c(c5)C(=O)N(C5CCC(=O)NC5=O)C6=O)CC4)C3)cn2)cc1Nc1cccc(-c2ncc(F)cn2)c1OC` (centres undefined), the Activity in [1] was 61%; in [3], 42%; in data set [2], 69%.

As for `C[C@@H]1C[C@@H]([C@H](O)CC2CC(=O)NC(=O)C2)C(=O)[C@@H](C)C1`, the outcome in data set [21] was Active.

Regarding `CNC(=O)c1cnc(Nc2ccc(C(=O)N3CCC(CN4CCN(c5ccc6c(c5)C(=O)N(C5CCC(=O)NC5=O)C6=O)CC4)CC3)cn2)cc1Nc1cccc(-c2ncc(F)cn2)c1OC` (centres undefined), in data set [1], the result was inactive. The Activity is 2% in data set [3] and 78% in data set [2].

For the compound `CNC(=O)c1cnc(Nc2ccc(C(=O)N3CCC(CNc4ccc5c(c4)C(=O)N(C4CCC(=O)NC4=O)C5=O)CC3)cn2)cc1Nc1cccc(-c2ncc(F)cn2)c1OC` (centres undefined), the Activity in data set [1] is 10%; in [3], 7%; in [2], 35%.

Consider `CNC(=O)c1cnc(Nc2ccc(C(=O)NCCCCCNc3cccc4c3C(=O)N(C3CCC(=O)NC3=O)C4=O)cn2)cc1Nc1cccc(-c2ncc(F)cn2)c1OC` (centres undefined), for which the Activity in data set [1] turned out to be 94%; in data set [2], 86%. Also, in [22], the half-maximal degradation concentration (DC50) turned out to be 0.43 nM.

Consider `CNC(=O)c1cnc(Nc2ccc(C(=O)NCCNc3cccc4c3C(=O)N(C3CCC(=O)NC3=O)C4=O)cn2)cc1Nc1cccc(-c2ncc(F)cn2)c1OC` (centres undefined), for which the Activity in data set [1] turned out to be 15%; in data set [2] it was 12%.
